According to patent EP4635500A1, “THERAPEUTIC AGENT FOR BACTERIAL INFECTION” (Sumitomo Pharma Co., Ltd., priority 2022, dated 2024):
In brackets after ≈: the same amount, converted by molar mass.

Tested on: Fusobacterium spp.
Test: MIC, agar dilution, anaerobic bacteria (Example 9, Tables 20, 25)
Type: cell-based

Cc1ncc([N+](=O)[O-])n1CCO [Metronidazole]
MIC50 (Fusobacterium spp.): ≤ 0.12 µg/mL
MICrange (Fusobacterium spp.): ≤0.12 to 0.5 µg/mL
MIC90 (Fusobacterium, Fusobacterium spp.): 0.25 µg/mL (≈ 1.46 µM)
MIC (Fusobacterium, KUB No. 6692 Fusobacterium sp.): ≤ 0.12 µg/mL
MIC (Fusobacterium, KUB No. 6693 Fusobacterium nucleatium): 0.25 µg/mL (≈ 1.46 µM)
MIC (Fusobacterium, KUB No. 6708 Fusobacterium necrophorun): ≤ 0.12 µg/mL
MIC (Fusobacterium, KUB No. 6715 Fusobacterium sp.): ≤ 0.12 µg/mL
MIC (Fusobacterium, KUB No. 6716 Fusobacterium nuncleatum): ≤ 0.12 µg/mL
MIC (Fusobacterium, KUB No. 6719 Fusobacterium sp.): ≤ 0.12 µg/mL
MIC (Fusobacterium, KUB No. 6725 Fusobacterium sp.): ≤ 0.12 µg/mL
MIC (KUB No. 2741 Fusobacterium varium ATCC 27725): 0.25 µg/mL (≈ 1.46 µM)
MIC (KUB No. 2742 Fusobacterium nucleatum ATCC 25586): ≤ 0.12 µg/mL
MIC (KUB No. 6694 Fusobacterium necrophorum): ≤ 0.12 µg/mL
MIC (KUB No. 6695 Fusobacterium necrophorum): 0.5 µg/mL (≈ 2.92 µM)
MIC (KUB No. 6696 Fusobacterium necrophorum): ≤ 0.12 µg/mL
MIC (KUB No. 6697 Fusobacterium nucleatum): ≤ 0.12 µg/mL
MIC (KUB No. 6698 Fusobacterium nucleatum): ≤ 0.12 µg/mL
MIC (KUB No. 6699 Fusobacterium necrophorum): ≤ 0.12 µg/mL
MIC (KUB No. 6700 Fusobacterium nucleatum): ≤ 0.12 µg/mL
MIC (KUB No. 6702 Fusobacterium necrophorum): 0.25 µg/mL (≈ 1.46 µM)
MIC (KUB No. 6710 Fusobacterium necrophorum): 0.25 µg/mL (≈ 1.46 µM)
MIC (KUB No. 6720 Fusobacterium nucleatum): ≤ 0.12 µg/mL
MIC (KUB No. 6724 Fusobacterium nucleatum): ≤ 0.12 µg/mL
